Measurements: ChEMBL document CHEMBL1141742, “A Novel Insect Antifeedant Nonprotein Amino Acid from Calotropis gigantea” (1998)
The source made the active and inactive calls. The rule behind the calls is not given here.

What was measured:
[1] = test system: Schistocerca gregaria; assay: Antifeedant activity against 5th instar nymphs of Schistocerca gregaria assessed as feeding reduction at 5 ug/cm'2 by maize leave choice feeding assay; format: functional; design: scale not given: the % may be the effect or the level left
[2] = test system: Schistocerca gregaria; assay: Antifeedant activity against 5th instar nymphs of Schistocerca gregaria assessed as feeding reduction at 6.6 ug/cm'2 by maize leave choice feeding assay; format: functional; design: scale not given: the % may be the effect or the level left
[3] = test system: Schistocerca gregaria; assay: Antifeedant activity against 5th instar nymphs of Schistocerca gregaria assessed as feeding reduction at 3.2 ug/cm'2 by maize leave choice feeding assay; format: functional; design: scale not given: the % may be the effect or the level left
[4] = test system: Schistocerca gregaria; assay: Antifeedant activity against 5th instar nymphs of Schistocerca gregaria assessed as feeding reduction at 1.6 ug/cm'2 by maize leave choice feeding assay; format: functional; design: scale not given: the % may be the effect or the level left
[5] = test system: Schistocerca gregaria; assay: Antifeedant activity against 5th instar nymphs of Schistocerca gregaria assessed as feeding reduction at 1 ng/cm'2 by filter paper based feeding assay; format: functional, organism-based

Row | SMILES | Activity [1] [%] | Activity [2] [%] | Activity [3] [%] | Activity [4] [%] | Activity [5]
1 | CCOC(=O)Nc1ccc([C@H](NC(C)=O)C(=O)O)cc1 [GIGANTICINE] | 80 | 90 | 68 | 55 | 
2 | C/C=C(\C)C(=O)O[C@H]1C[C@@H](OC(C)=O)[C@@]2(C(=O)OC)CO[C@H]3[C@@H](O)[C@@](C)([C@]45O[C@@]4(C)[C@@H]4C[C@H]5O[C@@H]5OC=C[C@@]54O)[C@H]4[C@]1(CO[C@]4(O)C(=O)OC)[C@@H]32 |  |  |  |  | Active
